Data taken from US20130065936A1, “MODULATION OF BIOACTIVE EPOXY-FATTY ACID LEVELS BY PHOSPHODIESTERASE INHIBITORS” (THE REGENTS OF THE UNIVERSITY OF CALIFORNIA, priority 2010, published 2013).

Tests used:
[1] = test system: endogenous oxylipin sEH substrates and products in rat plasma; test: Oxylipin analysis in rat plasma after sEHI / PDE inhibitor administration (LC-ESI-MS/MS); type: in vivo; settings: rat plasma 45 min after s.c.; 1 mg/kg, pentoxyphilline 10 mg/kg;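 also: plasma from tail vein blood, oxylipins quantified by LC-ESI-MS/MS against deuterated internal standards following solid-phase extraction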
[2] = test system: Sprague-Dawley rats; test: Acute nociceptive responses in healthy rats, Hargreaves thermal withdrawal latency; type: in vivo, rat; settings: for antagonism of / interaction with rolipram-produced increase in thermal withdrawal latency: Hargreaves, celecoxib 20, fluconazole 40, micanozole 40, finasteride 10, picrotoxin 0.25 mg/kg
[3] = test system: Sprague-Dawley rats; test: Acute nociceptive responses in healthy rats, Randall-Selitto mechanical sensitivity assay; type: in vivo, rat; settings: picrotoxin 0.25 mg/kg s.c.

## CC(=O)CCCCn1c(=O)c2c(ncn2C)n(C)c1=O [Pentoxyphilline]
[1]
  8(9)-EpETE: 1.27 nM
  8(9)-EpETrE: 6.41 nM
  8,9-DiHETE: 0.30 nM
  8,9-DiHETrE: 0.54 nM
  9(10)-EpOME: 59.92 nM
  9,10-DiHOME: 34.24 nM
  10(11)-EpDPE: 7.86 nM
  10,11-DiHDPE: 0.71 nM
  11(12)-EpETE: 0.80 nM
  11(12)-EpETrE: 10.60 nM
  11,12-DiHETE: 0.45 nM
  11,12-DiHETrE: 1.77 nM
  12(13)-EpOME: 87.05 nM
  12,13-DiHOME: 50.89 nM
  13(14)-EpDPE: 4.20 nM
  13,14-DiHDPE: 0.79 nM
  14(15)-EpETE: 0.69 nM
  14(15)-EpETrE: 14.76 nM
  14,15-DiHETE: 1.06 nM
  14,15-DiHETrE: 1.73 nM
  16(17)-EpDPE: 5.07 nM
  16,17-DiHDPE: 2.20 nM
  17(18)-EpETE: 3.08 nM
  17,18-DiHETE: 2.81 nM
  19(20)-EpDPE: 12.04 nM
  19,20-DiHDPE: 6.00 nM
  Ratio 8(9)-EpETE / 8,9-DiHETE: 4.15
  Ratio 8(9)-EpETrE / 8,9-DiHETrE: 11.91
  Ratio 9(10)-EpOME / 9,10-DiHOME: 1.75
  Ratio 10(11)-EpDPE / 10,11-DiHDPE: 11.13
  Ratio 11(12)-EpETE / 11,12-DiHETE: 1.79
  Ratio 11(12)-EpETrE / 11,12-DiHETrE: 6.00
  Ratio 12(13)-EpOME / 12,13-DiHOME: 1.71
  Ratio 13(14)-EpDPE / 13,14-DiHDPE: 5.30
  Ratio 14(15)-EpETE / 14,15-DiHETE: 0.66
  Ratio 14(15)-EpETrE / 14,15-DiHETrE: 8.52
  Ratio 16(17)-EpDPE / 16,17-DiHDPE: 2.30
  Ratio 17(18)-EpETE / 17,18-DiHETE: 1.10
  Ratio 19(20)-EpDPE / 19,20-DiHDPE: 2.01
  total Di-hydroxyeicosanoid: 423.15 nM
  total Epoxyeicosanoid: 497.36 nM
  total Ratio epoxy/dihydroxy eicosanoids: 1.18

## CC(C)(C)NC(=O)[C@H]1CC[C@H]2[C@@H]3CC[C@H]4NC(=O)C=C[C@]4(C)[C@H]3CC[C@]12C [finasteride]
[2]
  antagonism of / interaction with rolipram-produced increase in thermal withdrawal latency: competitive antagonism

## CN(C(=O)CCCOc1ccc2[nH]c(=O)ccc2c1)C1CCCCC1 [Cilostamide]
[1]
  8(9)-EpETE: 0.74 nM
  8(9)-EpETrE: 3.13 nM
  8,9-DiHETE: 0.27 nM
  8,9-DiHETrE: 0.47 nM
  9(10)-EpOME: 32.41 nM
  9,10-DiHOME: 29.53 nM
  10(11)-EpDPE: 4.06 nM
  10,11-DiHDPE: 0.66 nM
  11(12)-EpETE: 0.45 nM
  11(12)-EpETrE: 4.44 nM
  11,12-DiHETE: 0.43 nM
  11,12-DiHETrE: 1.60 nM
  12(13)-EpOME: 51.82 nM
  12,13-DiHOME: 37.98 nM
  13(14)-EpDPE: 2.23 nM
  13,14-DiHDPE: 0.73 nM
  14(15)-EpETE: 0.49 nM
  14(15)-EpETrE: 7.71 nM
  14,15-DiHETE: 1.24 nM
  14,15-DiHETrE: 1.82 nM
  16(17)-EpDPE: 2.94 nM
  16,17-DiHDPE: 2.28 nM
  17(18)-EpETE: 2.66 nM
  17,18-DiHETE: 3.08 nM
  19(20)-EpDPE: 8.95 nM
  19,20-DiHDPE: 5.50 nM
  Ratio 8(9)-EpETE / 8,9-DiHETE: 2.81
  Ratio 8(9)-EpETrE / 8,9-DiHETrE: 6.69
  Ratio 9(10)-EpOME / 9,10-DiHOME: 1.10
  Ratio 10(11)-EpDPE / 10,11-DiHDPE: 6.13
  Ratio 11(12)-EpETE / 11,12-DiHETE: 1.04
  Ratio 11(12)-EpETrE / 11,12-DiHETrE: 2.78
  Ratio 12(13)-EpOME / 12,13-DiHOME: 1.36
  Ratio 13(14)-EpDPE / 13,14-DiHDPE: 3.05
  Ratio 14(15)-EpETE / 14,15-DiHETE: 0.39
  Ratio 14(15)-EpETrE / 14,15-DiHETrE: 4.24
  Ratio 16(17)-EpDPE / 16,17-DiHDPE: 1.29
  Ratio 17(18)-EpETE / 17,18-DiHETE: 0.86
  Ratio 19(20)-EpDPE / 19,20-DiHDPE: 1.63
  total Di-hydroxyeicosanoid: 322.82 nM
  total Epoxyeicosanoid: 1014.12 nM
  total Ratio epoxy/dihydroxy eicosanoids: 3.14

## picrotoxin
[3]
  antagonism of the increase in mechanical withdrawal threshold produced by rolipram/AUDA: effectively antagonized
[2]
  antagonism of / interaction with rolipram-produced increase in thermal withdrawal latency: partially blocked rolipram
[2]; healthy rats, s.c., about 1 h after administration
  thermal withdrawal latency / pain related behavior, change from predrug baseline: ineffective on its own in changing pain related behavior
[2]; picrotoxin 0.25 mg/kg s.c.
  antagonism of the increase in thermal withdrawal latency produced by rolipram/AUDA: effectively antagonized

## CCc1ccc2c(-c3cccc(Cl)c3)nc(=O)n(CC)c2n1 [YM976]
[1]
  8(9)-EpETE: 2.74 nM
  8(9)-EpETrE: 13.59 nM
  8,9-DiHETE: 0.29 nM
  8,9-DiHETrE: 0.58 nM
  9(10)-EpOME: 147.05 nM
  9,10-DiHOME: 37.07 nM
  10(11)-EpDPE: 20.16 nM
  10,11-DiHDPE: 0.82 nM
  11(12)-EpETE: 2.23 nM
  11(12)-EpETrE: 22.80 nM
  11,12-DiHETE: 0.48 nM
  11,12-DiHETrE: 1.55 nM
  12(13)-EpOME: 159.31 nM
  12,13-DiHOME: 57.32 nM
  13(14)-EpDPE: 10.28 nM
  13,14-DiHDPE: 0.81 nM
  14(15)-EpETE: 1.99 nM
  14(15)-EpETrE: 26.50 nM
  14,15-DiHETE: 1.19 nM
  14,15-DiHETrE: 1.84 nM
  16(17)-EpDPE: 10.41 nM
  16,17-DiHDPE: 2.22 nM
  17(18)-EpETE: 4.49 nM
  17,18-DiHETE: 2.95 nM
  19(20)-EpDPE: 18.10 nM
  19,20-DiHDPE: 6.24 nM
  Ratio 8(9)-EpETE / 8,9-DiHETE: 9.62
  Ratio 8(9)-EpETrE / 8,9-DiHETrE: 23.44
  Ratio 9(10)-EpOME / 9,10-DiHOME: 3.97
  Ratio 10(11)-EpDPE / 10,11-DiHDPE: 24.59
  Ratio 11(12)-EpETE / 11,12-DiHETE: 4.69
  Ratio 11(12)-EpETrE / 11,12-DiHETrE: 14.76
  Ratio 12(13)-EpOME / 12,13-DiHOME: 2.78
  Ratio 13(14)-EpDPE / 13,14-DiHDPE: 12.66
  Ratio 14(15)-EpETE / 14,15-DiHETE: 1.67
  Ratio 14(15)-EpETrE / 14,15-DiHETrE: 14.43
  Ratio 16(17)-EpDPE / 16,17-DiHDPE: 4.68
  Ratio 17(18)-EpETE / 17,18-DiHETE: 1.52
  Ratio 19(20)-EpDPE / 19,20-DiHDPE: 2.90
  total Di-hydroxyeicosanoid: 423.59 nM
  total Epoxyeicosanoid: 535.16 nM
  total Ratio epoxy/dihydroxy eicosanoids: 1.26
